Tests used:
healthy volunteers [1] = assay: Thorough QT study: triplicate 12-lead ECG, QTcN and heart rate change from baseline; type: in vivo, human; conditions: for Difference from placebo: ΔΔQTcN (placebo-corrected MCfB in QTcN), adjusted mean: 2-4 hours post-dose, assay sensitivity
Protocol: This thorough QT study (TQT) was a randomised, double-blind (moxifloxacin open), placebo-controlled crossover trial which included the following treatments: 25 mg and 200 mg empagliflozin (Boehringer Ingelheim Pharma GmbH & Co. KG); 400 mg open-label moxifloxacin (Avalox®; Bayer Vital, Leverkusen, Germany); and two placebo periods, with a washout of at least seven days between treatments. Trial medication was administered in the morning after an overnight fast.
ECG recordings were made at screening and at the end of the study as part of the safety evaluation. For the QTc evaluation, ECG recordings were made on study drug administration days (as ECG profiles) at 60, 50 and 40 minutes pre-dose (to derive the period-specific baseline), and at 0.5, 1, 1.5, 2, 2.5, 3, 4, 6, 8, 12 and 24 hours post-dose (last three time points omitted for moxifloxacin treatment). At each time point, triplicate standard 12-lead ECGs (I, II, III, aVR, aVL, aVF, V1–V6) of 10 seconds’ duration each were recorded after at least 5 minutes’ rest in the supine position using CardioSoft ECG recording machines (GE Healthcare, Freiburg, Germany). ECGs were sent to a central laboratory for evaluation of PR, QRS, RR and QT intervals. The semi-automatic approach used for determination of the fiducial points provided an automatic pre-assessment using a computer algorithm, which was reviewed by a specialist and adjusted if necessary. This review was performed blinded with regard to treatment and time point.
Data from four cardiac cycles per ECG were averaged. A population heart rate-corrected QT interval (QTcN) was derived by determining the exponent δ of the relationship: QT ~ (1000 / RR)^δ (where δ is the regression effect of the covariate) using a linear mixed model on log-transformed RR and QT data (measured in ms). Data from triplicate ECGs were then averaged for each time point.
The primary endpoint was the mean change from baseline (MCfB) in QTcN which was the mean QTcN derived from ECGs obtained 1–4 hours post-dose minus mean QTcN from baseline ECGs obtained pre-dose at each visit. Plasma concentrations of both empagliflozin and moxifloxacin were expected to reach peak levels within this three-hour window, ensuring the most relevant levels of drug exposure.
(§1) Secondary endpoints were the changes from period baseline in QTcN at any time point between 0.5–24 hours after dosing. In addition, the MCfB 2–4 hours after dosing (for assessment of the moxifloxacin effect), and the MCfB of all ECGs taken 0.5–24 hours after dosing were evaluated. Safety and tolerability were evaluated based on physical examination, vital signs, ECG, clinical laboratory tests, adverse events (AEs) and the physician’s assessment of global tolerability.
Briefly, the primary analysis compared changes in the primary endpoint (QTcN MCfB over 1–4 hours) using an analysis of covariance (ANCOVA) model with ‘sequence’, ‘period’ and ‘treatment’ as fixed effects, ‘subjects nested within sequences’ as a random effect, and ‘pre-dose baseline’ as a covariate. Analyses were performed using pair-wise comparisons of the trial treatments. The saturated repeated measurements crossover (RMC) model with unstructured covariance using pair-wise comparisons of the trial treatments was used to evaluate changes from baseline in QTcN at any time point between 0.5–24 hours after dosing. […] For descriptive statistics and the exposure-response analysis, the changes from baseline in QTcN of the placebo periods were averaged prior to the derivation of the placebo corrected MCfB.
In agreement with ICH E14, all tests were performed one-sided against the threshold level of regulatory concern of 10 ms with type-I error of α=5%, which is statistically equivalent to the calculation of two-sided 90% confidence intervals for the adjusted mean estimates. […]

healthy volunteers [2] = assay: Safety and tolerability (adverse events) in the TQT study; type: in vivo, human; conditions: moxifloxacin; one participant; not considered related to study medication
Protocol: as §1
Categorical endpoints such as AEs, cardiologic assessments and occurrence of ECG intervals beyond thresholds of regulatory concern (e.g. QTc >450 ms) were analysed based on incidence rates adjusted for the number of periods in which the treatment was given. Additionally, the analysis of such events in periods with any of the two doses of empagliflozin compared with the two placebo periods provides a direct comparison of incidence rates. All analyses were performed on the “full analysis set”, which comprised all recorded data of all subjects who received at least one dose of study treatment and had at least one ECG endpoint assessment at baseline and post treatment. No imputation for missing data was planned or performed.

healthy volunteers [3] = test system: healthy volunteers; parameters: method as in PMID 19238652, PMID 15165918, PMID 15903123, PMID 11180026; conditions: moxifloxacin 400 mg; cited from earlier work
[4] = moxifloxacin 400 mg, 2-4 hours after administration

For `COc1c(N2C[C@@H]3CCCN[C@@H]3C2)c(F)cc2c(=O)c(C(=O)O)cn(C3CC3)c12` [Moxifloxacin, moxifloxacin, reference compound], the “Number of volunteers with a change in QTcN more than 30 ms” value (healthy volunteers [1]; moxifloxacin 400 mg) was “Five”, the “QTcN mean change from baseline: ΔQTcN, adjusted mean (SE)” value (healthy volunteers [1]; moxifloxacin 400 mg single dose, open-label, 2-4 hours after administration, n=29) was 16.0 (1.2) ms and the “Volunteers exceeding the QTcN threshold of 450 ms” value (healthy volunteers [1]; moxifloxacin 400 mg, 0.5-6 hours post-dose, two volunteers) was 6.9%. For the same compound, the “Difference from placebo: ΔΔHR, adjusted mean (SE)” value (healthy volunteers [1]; [4]) was 2.2 (0.6) bpm, the “HR mean change from baseline: ΔHR, adjusted mean (SE)” value (healthy volunteers [1]; [4]) was 2.0 (0.6) bpm and the “Difference from placebo: ΔΔQTcN (placebo-corrected MCfB in QTcN), adjusted mean” value (healthy volunteers [1]; moxifloxacin 400 mg) was 12.4 (1.0) ms. The “Difference from placebo: ΔΔQTcN (placebo-corrected MCfB in QTcN), adjusted mean” value (healthy volunteers [1]; moxifloxacin 400 mg, listed as moxifloxacin) was 12.4 (10.7, 14.1) ms, the “Serious AE leading to study discontinuation” value (healthy volunteers [2]) was “fatal car accident” and the “Prolongation of heart rate-corrected QT interval compared to placebo” value (healthy volunteers [3]) was 6 to 15 ms.
